20 compounds from patent US10577349B2 (Sanford Burnham Prebys Medical Discovery Institute, priority 2015, dated 2020) can be followed below.

The target of assay [1] is HCV cap-independent translation. Nature of the assay: In vitro translation assay, FF-HCV-Ren construct, cap-independent (Ren luciferase). Type of assay: biochemical, rabbit reticulocyte lysates. The text has this: (§1) The bicistronic dual-reporter constructs that contain the firefly luciferase (FF) sequence, followed by the (encephalomyocarditis virus) EmCV and Hepatitis C virus (HCV) IRES, respectively, and the Renilla reniformis (Ren) luciferase sequence, has been previously described (Bordeleau Me., et al. Functional characterization of IRESes by an inhibitor of the RNA helicase eIF4A. Nature chemical biology. 2006; 2:213-20). For measurement of translation from the FF-EmCV-Ren and FF-HCV-Ren constructs, rabbit reticulocyte lysates (RRL) (Life Technologies, Carlsbad, Calif., USA) and the Dual-Glo (Promega, Madison, Wis., USA) read-outs were chosen. Two μl rabbit reticulocyte lysates mixed with Translation Mix 20× (-Met) and Translation Mix 20× (-Leu) in a ratio of 1:1 were pre-incubated with test compounds in 1536-well plates for 1 h at room temperature. Then, translation was started by adding 0.1 μg RNA per well and incubated for 2 h at 30° C. After a short chill phase, 2.5 μl Dual-Glo reagent 1 was added to each well and incubated for 10 min before reading the FF luciferase activity with the ViewLux uHTS Microplate Imager (Perkin Elmer, Waltham, Mass., USA). Directly after, 2.5 μl Dual-Glo reagent 2 was dispensed to each well and incubated at room temperature for 10 min before reading the Ren luciferase activity on the ViewLux. To exclude the possibility that test compounds interfere with any of the luciferase activities, a counter assay was performed in which the compounds were added after the completion of the in vitro translation.

Assay [2] deals with A375. Nature of the assay: 48 h Cytotoxicity A375. In kind it is cell-based. Particulars: Homo sapiens, A-375.
In assay [3] the target is HCV cap-dependent translation. Nature of the assay: In vitro translation assay, FF-HCV-Ren construct, cap-dependent (FF luciferase). In kind it is biochemical, rabbit reticulocyte lysates.
Text: as §1

In assay [4] the target is EmCV Cap-dependent translation. Nature of the assay: In vitro translation assay, FF-EmCV-Ren construct, cap-dependent (FF luciferase). In kind it is biochemical, rabbit reticulocyte lysates.
Text: as §1

Assay [5] deals with EmCV Cap-independent translation. Nature of the assay: In vitro translation assay, FF-EmCV-Ren construct, cap-independent (Ren luciferase). Type of assay: biochemical, rabbit reticulocyte lysates.
Text: as §1

As usually defined, the IC50 is the concentration that inhibits the measured activity by half. Low readings indicate inhibition by little substance, high ones a need for much substance. As to `Cc1ccc(/C=C/C(=O)c2c(-c3ccccc3)c3cc(Cl)ccc3[nH]c2=O)nc1` [Compound 48, 6-Chloro-3-[3-(5-methyl-pyridin-2-yl)-acryloyl]-4-phenyl-1H-quinolin-2-one], the half-maximal inhibitory concentration (IC50) lay in the range of 10 to 20 µM in assay [1]; 2 to 10 µM in assay [2]; 2 to 10 µM in assay [3]; 2 to 10 µM in assay [4]; 2 to 10 µM in assay [5].
Consider `O=C(/C=C/c1ccc(F)cc1C(F)(F)F)c1c(-c2ccccc2)c2cc(Cl)ccc2[nH]c1=O` [Compound 49, 6-Chloro-3-[3-(4-fluoro-2-trifluoromethyl-phenyl)-acryloyl]-4-phenyl-1H-quinolin-2-one], for which the IC50 in assay [1] is 2 to 10 µM; in assay [2], less than 2 µM; in assay [3], 2 to 10 µM; in assay [4], 2 to 10 µM; in assay [5] it was 2 to 10 µM.
Consider `O=C(/C=C/c1ccoc1)c1c(-c2ccccc2)c2cc(Cl)ccc2[nH]c1=O` [Compound 50, 6-Chloro-3-(3-furan-3-yl-acryloyl)-4-phenyl-1H-quinolin-2-one], for which the IC50 in assay [1] is more than 20 µM; in assay [2], less than 2 µM; in assay [3], more than 20 µM; in assay [4], 2 to 10 µM; in assay [5], 10 to 20 µM.
Consider `O=C(/C=C/c1cccs1)c1c(-c2ccccc2)c2cc(Cl)ccc2[nH]c1=O` [Compound 51, 6-Chloro-4-phenyl-3-(3-thiophen-2-yl-acryloyl)-1H-quinolin-2-one], for which the IC50 in assay [1] was more than 20 µM; in assay [2], 2 to 10 µM; in assay [3] it was 10 to 20 µM; in assay [4], more than 20 µM; in assay [5] it was more than 20 µM.
Regarding `O=C(/C=C/c1cnccn1)c1c(-c2ccccc2)c2cc(Cl)ccc2[nH]c1=O` [Compound 52, 6-Chloro-4-phenyl-3-(3-pyrazin-2-yl-acryloyl)-1H-quinolin-2-one], the IC50 in assay [1] was in the range of 2 to 10 µM; in assay [2], 2 to 10 µM; in assay [3] it was 10 to 20 µM; in assay [4], 2 to 10 µM; in assay [5] it was 2 to 10 µM.
For the compound `Cn1c(/C=C/C(=O)c2c(-c3ccccc3)c3cc(Cl)ccc3[nH]c2=O)nc2ccccc21` [Compound 53, 6-Chloro-3-[3-(1-methyl-1H-benzoimidazol-2-yl)-acryloyl]-4-phenyl-1H-quinolin-2-one], the IC50 in assay [1], in assay [2], in assay [3], in assay [4] and in assay [5] was 2 to 10 µM each time.
Take `COc1ccc(Cn2c(/C=C/C(=O)c3c(-c4ccccc4)c4cc(Cl)ccc4[nH]c3=O)nc3cc(Cl)ccc32)cc1` [Compound 54, (E)-6-chloro-3-(3-(5-chloro-1-(4-methoxybenzyl)-1H-benzo[d]imidazol-2-yl)acryloyl)-4-phenylquinolin-2(1H)-one]: the concentration for half-maximal inhibition (IC50) in assay [1], in assay [2], in assay [3], in assay [4] and in assay [5] was 2 to 10 µM in each case.
As to `O=C(/C=C/c1nc2ccccc2n1Cc1ccccc1)c1c(-c2ccccc2)c2cc(Cl)ccc2[nH]c1=O` [Compound 55, 3-[3-(1-Benzyl-1H-benzoimidazol-2-yl)-acryloyl]-6-chloro-4-phenyl-1H-quinolin-2-one], the IC50 in assay [1], in assay [2], in assay [3], in assay [4] and in assay [5] was 2 to 10 µM throughout.
In the case of `O=C(/C=C/c1nc2ccccc2n1Cc1ccccc1)c1c(-c2ccccc2)c2cc(Cl)ccc2n(Cc2ccccc2)c1=O` [Compound 56, 1-benzyl-3-[3-(1-benzyl-1H-benzoimidazol-2-yl)-acryloyl]-6-chloro-4-phenyl-1H-quinolin-2-one], the IC50 in assay [1] is 2 to 10 µM; in assay [2], 2 to 10 µM; in assay [3], 10 to 20 µM; in assay [4] it was 2 to 10 µM; in assay [5], more than 20 µM.
For `COCCn1c(/C=C/C(=O)c2c(-c3ccccc3)c3cc(Cl)ccc3[nH]c2=O)nc2ccccc21` [Compound 57, 6-Chloro-3-{3-[1-(2-methoxy-ethyl)-1H-benzoimidazol-2-yl]-acryloyl}-4-phenyl-1H-quinolin-2-one], the IC50 in assay [1], in assay [2], in assay [3], in assay [4] and in assay [5] was 2 to 10 µM throughout.
As to `CCn1c(/C=C/C(=O)c2c(-c3ccccc3)c3cc(Cl)ccc3[nH]c2=O)nc2ccccc21` [Compound 58, 6-Chloro-3-[3-(1-ethyl-1H-benzoimidazol-2-yl)-acryloyl]-4-phenyl-1H-quinolin-2-one], the IC50 in assay [1], in assay [2], in assay [3], in assay [4] and in assay [5] was 2 to 10 µM each time.
On to `Cn1c(/C=C/C(=O)c2c(-c3ccccc3)c3cc(Cl)ccc3n(C)c2=O)nc2ccccc21` [Compound 59, 6-Chloro-1-methyl-3-[3-(1-methyl-1H-benzoimidazol-2-yl)-acryloyl]-4-phenyl-1H-quinolin-2-one], for which the IC50 in assay [1], in assay [2], in assay [3], in assay [4] and in assay [5] was 2 to 10 µM throughout.
As to `CCn1c(/C=C/C(=O)c2c(-c3ccccc3)c3cc(Cl)ccc3n(CC)c2=O)nc2ccccc21` [Compound 60, (E)-6-chloro-1-ethyl-3-(3-(1-ethyl-1H-benzo[d]imidazol-2-yl)acryloyl)-4-phenylquinolin-2(1H)-one], the IC50 in assay [1] is 10 to 20 µM; in assay [2] it was 2 to 10 µM; in assay [3] it was 10 to 20 µM; in assay [4], more than 20 µM; in assay [5], more than 20 µM.
Turning to `O=C(/C=C/c1nc2cc(Cl)c(Cl)cc2[nH]1)c1c(-c2ccccc2)c2cc(Cl)ccc2[nH]c1=O` [Compound 63, 6-Chloro-3-[3-(5,6-dichloro-1H-benzoimidazol-2-yl)-acryloyl]-4-phenyl-1H-quinolin-2-one], the IC50 in assay [1], in assay [2], in assay [3], in assay [4] and in assay [5] was 2 to 10 µM each time.
With `CCn1c(/C=C/C(=O)c2c(-c3ccccc3)c3cc(Cl)ccc3[nH]c2=O)nc2cc(Cl)c(Cl)cc21` [Compound 64, 6-Chloro-3-[3-(5,6-dichloro-1-ethyl-1H-benzoimidazol-2-yl)-acryloyl]-4-phenyl-1H-quinolin-2-one], the IC50 in assay [1] is more than 20 µM; in assay [2], 2 to 10 µM; in assay [3] it was 10 to 20 µM; in assay [4], 2 to 10 µM; in assay [5] it was 10 to 20 µM.
`COc1ccc2[nH]c(/C=C/C(=O)c3c(-c4ccccc4)c4cc(Cl)ccc4[nH]c3=O)nc2c1` [Compound 65, 6-Chloro-3-[3-(5-methoxy-1H-benzoimidazol-2-yl)-acryloyl]-4-phenyl-1H-quinolin-2-one]: the IC50 is 2 to 10 µM in assay [1]; less than 2 µM in assay [2]; 2 to 10 µM in assay [3]; 2 to 10 µM in assay [4]; 2 to 10 µM in assay [5].
On to `COc1cncc(/C=C/C(=O)c2c(-c3ccccc3)c3cc(Cl)ccc3[nH]c2=O)c1` [Compound 66, 3-[(2E)-3-(5-methoxy(3-pyridyl))prop-2-enoyl]-6-chloro-4-phenylhydroquinolin-2-one], for which the IC50 in assay [1] is 2 to 10 µM; in assay [2], less than 2 µM; in assay [3] it was 2 to 10 µM; in assay [4] it was 2 to 10 µM; in assay [5], 2 to 10 µM.
In the case of `O=C(CCc1cncc(F)c1)c1c(-c2ccccc2)c2cc(Cl)ccc2[nH]c1=O` [Compound 67, 6-Chloro-3-[3-(5-fluoro(3-pyridyl))propanoyl]-4-phenylhydroquinolin-2-one], the IC50 in assay [1], in assay [2], in assay [3], in assay [4] and in assay [5] was more than 20 µM each time.
On to `O=C(CCc1nc2ccccc2[nH]1)c1c(-c2ccccc2)c2cc(Cl)ccc2[nH]c1=O` [Compound 68, 3-(3-1H-Benzoimidazol-2-yl-propionyl)-6-chloro-4-phenyl-1H-quinolin-2-one], for which the IC50 in assay [1], in assay [2], in assay [3], in assay [4] and in assay [5] was more than 20 µM in each case.
On to `Cc1ccnc(/C=C/C(=O)c2c(-c3ccccc3)c3cc(Cl)ccc3[nH]c2=O)c1` [Compound 70, 3-[(2E)-3-(4-methyl(2-pyridyl))prop-2-enoyl]-6-chloro-4-phenylhydroquinolin-2-one], for which the IC50 in assay [1], in assay [2], in assay [3], in assay [4] and in assay [5] was 2 to 10 µM in each case.
